Experimental data reported in patent US11634466B2, “Musclin peptides and methods of use thereof” (UNIVERSITY OF IOWA RESEARCH FOUNDATION, priority 2016, dated 2023).

Legend:
WT and Ostn-KO mice = assay: Voluntary exercise performance on running wheels during musclin infusion; assay type: in vivo
Method: Whole body composition was obtained by time-domain nuclear magnetic resonance under isoflurane anesthesia (Bruker Minispec; Billerica, Mass.). Osmotic pumps: Osmotic pumps (model 1004, 100 μl volume, 0.11 μl/hr release rate, 28 days duration, Alzet Durect, Cupertino, Calif.), loaded with saline vs. 50 μg of mouse musclin peptide (SFSGFGSPLDRLSAG SVEHRGKQRKAVDHSKKR (SEQ ID NO: 4), corresponding to amino acids 80-112, Gen Bank ID: AAS87598.1, synthesized by Biosynthesis, Lewisville, Tex.) were surgically implanted within the peritoneal cavity of mice under sterile conditions and general anesthesia. Mice recovered for 7 days before exercise testing was performed.
Mice were housed in individual cages with free access to attached running wheels (Columbus Instruments, Columbus, Ohio). Running distance was calculated as 1/6πD·ΣRMPi, where D is wheel diameter and ΣRMPi is sum of averaged RPM values.

[1] = system: cGMP production in murine primary myoblasts; assay: cGMP production in skeletal myoblast culture exposed to ANP and musclin; assay type: cell-based; settings: n=3
Method: Cyclic GMP levels were measured using cyclicGMP EIA kit (Cayman Chemical Company, Ann Arbor, Mich.). Mice were exercised for 5 days, 12 m/min, 45 min before tissue collection. At the day of the experiment mice were exercised 12 m/min, 20 min, sedated with isoflurane and gastrocnemius muscle tissue was collected. Cyclic nucleotides were extracted using 5% trichloracetic acid. Samples were acetylated and used for cGMP level measurements according to the manufacturer's protocol.
Mouse primary myoblasts were isolated from gastrocnemius muscle of 4-6 weeks old mice. Fresh muscle tissue was digested with 2 mg/ml collagenase II in DMEM-F12 for 1.5 h at 37° C.; then 30 min at 37° C. with 1 mg/ml collagenase II and 0.5 mg/ml dispase in DMEM-F12. Tissue was ground and passed through a 100 μm then 70 μm cell strainer and spun at 1000 rpm for 10 min. Myoblasts were resuspended in DMEM-F12 supplemented with 20% FBS, 40 ng/ml bFGF, non-essential amino acids, 1 mM β-mercaptoethanol. Cells were plated on matrigel coated dishes. Cells were maintained in DMEM-F12 supplemented with 20% FBS, 10 ng/ml bFGF, non-essential amino acids, 1 mM β-mercaptoethanol until 80% confluent. Then they were differentiated in DMEM-F12 supplemented with 2% FBS and insulin-transferrin-selenium for 10 days. Human skeletal myoblast primary culture (lot #SLSK002, Zenbio, Research Triangle Park, NC) was maintained according to the supplier's manual.

[2] = system: mTORC1 targets (4EBP1, P70S6K); assay: Western blot of mTOR targets in skeletal muscle after musclin infusion; assay type: in vivo; settings: WT mice
Method: Western blotting: Whole cell protein extracts were prepared by homogenizing skeletal muscle tissue in NaCl 150 mM, Tris-HCl 50 mM (pH 7.8), supplemented with 1.5% Triton X-100, protease and phosphatase inhibitors (Roche). Nuclear extracts were obtained using the Subcellular Protein Fractionation Kit for Tissues (Thermo Scientific).
Electrophoresis was performed on 3-8% gradient Nu-Page Tris-Acetate or 10% Nu-Page Bis-Tris gels and transferred to 0.2 μm Sequi-Blot PVDF membranes (Bio-Rad). The membranes were blotted with total AKT1 and phospho-AKT1([…], T308, Cell Signaling), FOXO1 (Cell Signaling), total OXPHOS (rodent, Abcam), musclin (custom rabbit IgG produced against partial mouse musclin sequence NH2-sfsgfgspldrlsagsvehrgkqrkavdhskkr-COOH (SEQ ID NO: 4), corresponding to amino acids 80-112, Gen Bank ID: AAS87598.1, Anaspec, Fremont, Calif.), and GAPDH (Santa Cruz Biotechnologies) antibodies. Densitometric analysis of western blots was performed using Adobe Photoshop (Adobe Systems, San Jose, Calif.).
These findings are paralleled by more pure glycolytic fibers and greater fatigability in tibialis anterior (TA) muscles of exercise-trained Ostn-KO vs. WT mice (FIGS. 13A-13C). […] GSK3β phosphorylation is associated with increased autophosphorylation of mTOR at S2481 (FIGS. 14A-14B). Furthermore, consistent with the known activating effect of GSK3β inhibition on mTORC1, we find increased phosphorylation of the mTOR targets 4EBP1, P70S6K and ULK1 in skeletal muscles of trained WT vs. Ostn-KO mice 1 h after last exercise (FIGS. 15A-15B). […] We also find that skeletal muscle autophagy flux 1 h after last exercise is increased in exercise-trained Ostn-KO vs. WT, as reflected in higher LC3A II/I ratio and lower expression of P62 on western blots (FIGS. 16A-16G).

[3] = target: T1, NP clearance receptor, NPRC (Homo sapiens, UniProt P17342); settings: background statement; cited from earlier work
T1 sequence (P17342 27-541): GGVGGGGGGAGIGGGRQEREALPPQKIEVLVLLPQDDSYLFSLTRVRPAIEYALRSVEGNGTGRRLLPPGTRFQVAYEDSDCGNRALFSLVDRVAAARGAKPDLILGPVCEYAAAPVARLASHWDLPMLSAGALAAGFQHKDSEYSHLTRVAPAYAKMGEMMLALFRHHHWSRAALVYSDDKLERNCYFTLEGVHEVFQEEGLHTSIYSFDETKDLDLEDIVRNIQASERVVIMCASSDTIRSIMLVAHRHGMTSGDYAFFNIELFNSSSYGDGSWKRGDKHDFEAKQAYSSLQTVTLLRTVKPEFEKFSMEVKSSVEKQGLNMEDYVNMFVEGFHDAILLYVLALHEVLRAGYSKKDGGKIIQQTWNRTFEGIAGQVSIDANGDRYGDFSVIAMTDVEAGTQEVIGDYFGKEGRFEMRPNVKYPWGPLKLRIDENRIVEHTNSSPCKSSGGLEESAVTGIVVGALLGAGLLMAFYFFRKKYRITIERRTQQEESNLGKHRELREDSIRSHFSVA

[4] = Ostn-KO mice treated with musclin by osmotic pump, night, n=4
[5] = WT mice treated with musclin by osmotic pump, night, n=5
[6] = musclin 1 ng/g/h i.p. by osmotic pump for 7 d, skeletal muscle western blot, n=3

H-SFSGFGSPLDRLSAGSVEHRGKQRKAVDHSKKR-OH [musclin]
night-time mean velocity, voluntary running wheel (WT and Ostn-KO mice; Ostn-KO mice treated with musclin by osmotic pump, n=4): 53±15 rotations/5 min.
distance run, voluntary running wheel (WT and Ostn-KO mice; [4]): 2290±632 meters
duration of running, voluntary running wheel (WT and Ostn-KO mice; [4]): 333 ± 53 min
distance, voluntary running wheel (WT and Ostn-KO mice; [5]): 2202±280 meters
duration, voluntary running wheel (WT and Ostn-KO mice; [5]): 336 ± 39 min
mean velocity, voluntary running wheel (WT and Ostn-KO mice; [5]): 51±7 rotations/5 min.
cGMP production ([1]; 1 μM musclin without ANP): 0.104±0.006 fmol/μg protein
cGMP production ([1]; 5 μM musclin without ANP): 0.117±0.003 fmol/μg protein
4EBP1/GAPDH [2, 6]: 1.78±0.05
P70S6K/GAPDH [2, 6]: 1.73±0.03
p-4EBP1/total 4EBP1 [2, 6]: 0.59±0.07
p-P70S6K/total P70S6K [2, 6]: 0.32±0.06
phosphorylation of mTORC1 targets ([2]; musclin 1 ng/g/h i.p. for 7 d vs. saline-treated mice): greater phosphorylation
binding to NPRC [3]: affinity comparable to NPs
